Measurements taken from ChEMBL document CHEMBL1201862, “PubChem BioAssay data set” (2004).
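Cultured in 96-well plates, cells were exposed to test compound for 48 hours across five concentrations. The concentration for 50% growth inhibition is given as GI50.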 Calls of active or inactive are those of the source. Cut-off read from the data, not from the text of the source: active = GI50 up to about 1.1 µM and inactive = higher. Where a SMILES comes first, the peptide text is derived from it. The star is where a group is joined. Boc = CC(C)(C)OC(=O)*; OBn = c1ccc(CO*)cc1

Legend:
Test in all cases: NCI anticancer screen, dose series, 48 h
TK-10 = system: TK-10
NCI-H522 = system: NCI-H522
OVCAR-3 = system: OVCAR-3
SN12C = system: SN12C
RXF 393 = system: RXF 393
UACC-62 = system: UACC-62
MOLT-4 = system: MOLT-4
ACHN = system: ACHN
OVCAR-5 = system: OVCAR-5
SK-MEL-28 = system: SK-MEL-28
SW-620 = system: SW-620
Hs-578T = system: Hs-578T
CAKI-1 = system: CAKI-1
SK-MEL-2 = system: SK-MEL-2
HT-29 = system: HT-29
Malme-3M = system: Malme-3M
SF-268 = system: SF-268
SF-295 = system: SF-295
IGROV-1 = system: IGROV-1
NCI/ADR-RES = system: NCI/ADR-RES
HCT-15 = system: HCT-15
SK-MEL-5 = system: SK-MEL-5
SF-539 = system: SF-539
MCF7 = system: MCF7
U-251 = system: U-251
BT-549 = system: BT-549
RPMI-8226 = system: RPMI-8226
A549 = system: A549
UACC-257 = system: UACC-257
HCT-116 = system: HCT-116
COLO 205 = system: COLO 205
UO-31 = system: UO-31
SK-OV-3 = system: SK-OV-3
HL-60 = system: HL-60
OVCAR-4 = system: OVCAR-4
T47D = system: T47D
786-0 = system: 786-0
OVCAR-8 = system: OVCAR-8
HOP-62 = system: HOP-62
NCI-H460 = system: NCI-H460
CCRF-CEM = system: CCRF-CEM
PC-3 = system: PC-3
NCI-H23 = system: NCI-H23
MDA-N = system: MDA-N
LOX IMVI = system: LOX IMVI
MDA-MB-435 = system: MDA-MB-435
A498 = system: A498
KM12 = system: KM12
SNB-19 = system: SNB-19
DU-145 = system: DU-145
MDA-MB-231 = system: MDA-MB-231
SR = system: SR
M14 = system: M14
NCI-H226 = system: NCI-H226
K562 = system: K562
EKVX = system: EKVX
SNB-75 = system: SNB-75
HOP-92 = system: HOP-92

SMILES: COc1cc2c3c(c1)c1cc(OC)c(OC)cc1c[n+]3CC2
- GI50 (TK-10): > 50 µM (inactive)
- GI50 (NCI-H522): 0.927 µM (active)
- GI50 (OVCAR-3): 12.5 µM (inactive)
- GI50 (SN12C): 1.53 µM (inactive)
- GI50 (RXF 393): 27.9 µM (inactive)
- GI50 (UACC-62): 19.1 µM (inactive)
- GI50 (MOLT-4): 2 µM (inactive)
- GI50 (ACHN): > 50 µM (inactive)
- GI50 (OVCAR-5): > 50 µM (inactive)
- GI50 (SK-MEL-28): 22.8 µM (inactive)
- GI50 (SW-620): > 50 µM (inactive)
- GI50 (Hs-578T): 3.1 µM (inactive)
- GI50 (CAKI-1): 30.6 µM (inactive)
- GI50 (SK-MEL-2): 31.8 µM (inactive)
- GI50 (HT-29): 23 µM (inactive)
- GI50 (Malme-3M): 0.991 µM (active)
- GI50 (SF-268): 0.0175 µM (active)
- GI50 (SF-295): 15.5 µM (inactive)
- GI50 (IGROV-1): 17.5 µM (inactive)
- GI50 (NCI/ADR-RES): > 50 µM (inactive)
- GI50 (HCT-15): > 50 µM
- GI50 (SK-MEL-5): 13.6 µM (inactive)
- GI50 (SF-539): 6.12 µM (inactive)
- GI50 (MCF7): 15.8 µM (inactive)
- GI50 (U-251): 2.22 µM (inactive)
- GI50 (BT-549): 2.63 µM (inactive)
- GI50 (RPMI-8226): 18.7 µM (inactive)
- GI50 (A549): > 50 µM (inactive)
- GI50 (UACC-257): 18.1 µM (inactive)
- GI50 (HCT-116): 8.36 µM (inactive)
- GI50 (COLO 205): 7.29 µM (inactive)
- GI50 (UO-31): > 100 µM (inactive)
- GI50 (SK-OV-3): > 50 µM (inactive)
- GI50 (HL-60): > 50 µM (inactive)
- GI50 (OVCAR-4): 15 µM (inactive)
- GI50 (T47D): 5.35 µM (inactive)
- GI50 (786-0): 1.61 µM (inactive)
- GI50 (OVCAR-8): 4.32 µM (inactive)
- GI50 (HOP-62): 5.73 µM (inactive)
- GI50 (NCI-H460): 4.32 µM (inactive)
- GI50 (CCRF-CEM): > 50 µM (inactive)
- GI50 (PC-3): 25.8 µM (inactive)
- GI50 (NCI-H23): 7.29 µM (inactive)
- GI50 (MDA-N): 24.8 µM (inactive)
- GI50 (LOX IMVI): 28.7 µM (inactive)
- GI50 (MDA-MB-435): 25.8 µM (inactive)
- GI50 (A498): > 50 µM (inactive)
- GI50 (KM12): 3.77 µM (inactive)
- GI50 (SNB-19): 2.49 µM (inactive)
- GI50 (DU-145): 31.8 µM (inactive)
- GI50 (MDA-MB-231): > 50 µM (inactive)
- GI50 (SR): 21.8 µM (inactive)
- GI50 (M14): > 50 µM (inactive)
- GI50 (NCI-H226): 14.2 µM (inactive)
- GI50 (K562): 10 µM (inactive)
- GI50 (EKVX): 8.51 µM (inactive)

SMILES: CC(C)CC(NC(=O)C(Cc1ccccc1)NC(=O)C(Cc1ccccc1)NC(=O)OC(C)(C)C)C(=O)OCc1ccccc1 (stereo not drawn) (Boc-Phe-Phe-Leu-OBn; configuration not given here)
- GI50 (TK-10): > 100 µM (inactive)
- GI50 (SNB-75): > 100 µM (inactive)
- GI50 (NCI-H522): > 100 µM (inactive)
- GI50 (OVCAR-3): > 100 µM (inactive)
- GI50 (SN12C): > 100 µM (inactive)
- GI50 (RXF 393): > 100 µM (inactive)
- GI50 (UACC-62): > 100 µM (inactive)
- GI50 (MOLT-4): > 100 µM (inactive)
- GI50 (OVCAR-5): > 100 µM (inactive)
- GI50 (SK-MEL-28): > 100 µM (inactive)
- GI50 (SW-620): > 100 µM (inactive)
- GI50 (Hs-578T): > 100 µM (inactive)
- GI50 (CAKI-1): > 100 µM (inactive)
- GI50 (SK-MEL-2): > 100 µM (inactive)
- GI50 (HT-29): > 100 µM (inactive)
- GI50 (Malme-3M): > 100 µM (inactive)
- GI50 (SF-268): > 100 µM (inactive)
- GI50 (SF-295): > 100 µM (inactive)
- GI50 (IGROV-1): > 100 µM (inactive)
- GI50 (NCI/ADR-RES): > 100 µM (inactive)
- GI50 (HCT-15): > 100 µM
- GI50 (SK-MEL-5): > 100 µM (inactive)
- GI50 (SF-539): > 100 µM (inactive)
- GI50 (MCF7): > 100 µM (inactive)
- GI50 (U-251): > 100 µM (inactive)
- GI50 (BT-549): > 100 µM (inactive)
- GI50 (RPMI-8226): > 100 µM (inactive)
- GI50 (A549): > 100 µM (inactive)
- GI50 (UACC-257): > 100 µM (inactive)
- GI50 (HCT-116): > 100 µM (inactive)
- GI50 (COLO 205): > 100 µM (inactive)
- GI50 (UO-31): > 100 µM (inactive)
- GI50 (SK-OV-3): > 100 µM (inactive)
- GI50 (HL-60): > 100 µM (inactive)
- GI50 (T47D): > 100 µM (inactive)
- GI50 (HOP-92): > 100 µM (inactive)
- GI50 (786-0): > 100 µM (inactive)
- GI50 (OVCAR-8): > 100 µM (inactive)
- GI50 (HOP-62): > 100 µM (inactive)
- GI50 (CCRF-CEM): > 100 µM (inactive)
- GI50 (PC-3): > 100 µM (inactive)
- GI50 (NCI-H23): > 100 µM (inactive)
- GI50 (MDA-N): > 100 µM (inactive)
- GI50 (LOX IMVI): > 100 µM (inactive)
- GI50 (MDA-MB-435): > 100 µM (inactive)
- GI50 (A498): > 100 µM (inactive)
- GI50 (KM12): > 100 µM (inactive)
- GI50 (SNB-19): > 100 µM (inactive)
- GI50 (DU-145): > 100 µM (inactive)
- GI50 (MDA-MB-231): > 100 µM (inactive)
- GI50 (SR): > 100 µM (inactive)
- GI50 (M14): > 100 µM (inactive)
- GI50 (NCI-H226): > 100 µM (inactive)
- GI50 (K562): > 100 µM (inactive)
- GI50 (EKVX): > 100 µM (inactive)
